Records with an inconclusive call do not appear. Activity calls are given as the source filed them.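 Rule for the calls: active = compounds lowering the luciferase signal with a fitted half-maximal dose at most twice their top valid dose (cut at about 30 µM in these data); inconclusive = flat fits with moderate signal loss, or poor fits; inactive = the rest.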
The compounds below were run on Clone20 osteoblast Shn3 3'UTR firefly luciferase, 24 h (assay: Schnurri-3 3'UTR-luciferase signal suppressors – cell-based, Clone20 osteoblasts, luminescence, dry powder, set 2, dose response (AID 743417)).
`COc1ccc([C@@]23Oc4cc(OC)cc(OC)c4[C@]2(O)[C@H](O)[C@H](C(=O)N(C)C)[C@H]3c2ccccc2)cc1` showed an AC50 of under 260 nM.
`Nc1nc(N)c(-c2cccc(C(F)(F)F)c2)c(Cc2cccc(C(F)(F)F)c2)n1` showed an AC50 of 3600 nM.
For `COc1ccc(CNCC(O)COc2cccc3c2OC(C)(C)C3)cc1` (configuration not stated), the AC50 was 1680 nM.
With `COc1ccc(-c2nc(CN3CCN(c4ncnc5ccccc45)CC3)c(C)o2)c(OC)c1` the AC50 was 6380 nM.
For `CN(Cc1ccccc1)C(=O)c1cccc(NC(=O)Cc2ccc([N+](=O)[O-])cc2)c1`, the AC50 was 16800 nM.
`CC(CNC(=O)c1cc(COc2ccc3ncccc3c2)on1)c1ccccc1` (configuration not stated) was tested, and the AC50 was 3730 nM.
In the case of `COc1ccccc1N/C(N)=N/c1nc(CSc2ccc(C)cc2)cc(=O)[nH]1`, the AC50 is reported as 2950 nM.
`CCCN1C(=O)S/C(=C\c2ccc(N3CCOCC3)o2)C1=O` was tested, and the AC50 was 6370 nM.
Work on `CC(C)c1ccc(NC(=O)Nc2nc(C(N)C3CCCCC3)cs2)cc1` (configuration not stated) yielded an AC50 of 7290 nM.
`CCCNC(=O)c1nnsc1S(=O)c1ccc(Cl)cc1` (configuration not stated) was tested, and the AC50 was 1260 nM.
For `CCCCCCCNC(=O)C1(CC2CC(c3cccc(Br)c3)=NO2)CCNCC1` (configuration not stated), the AC50 was 11700 nM.
For `c1ccc2c(-c3[nH]ncc3CNCCCn3ncc4ccccc43)cccc2c1`, the AC50 was 3250 nM.
In the case of `Cc1ccc(CS(=O)(=O)c2ncc(Cl)c(C(=O)Nc3nnc(C(C)C)s3)n2)cc1`, the AC50 is reported as 1520 nM.
For `Cc1cc2cc(CN(CC3CCCO3)C(=S)Nc3ccccc3)c(=O)[nH]c2cc1C` (configuration not stated), the AC50 was 2910 nM.
With `COC(=O)C1=C(C(=O)OC)[C@@H]2N(Cc3ccccc3)c3ccccc3[C@@]23C[C@@H](C(=O)OC)N(C(=O)c2ccc(Br)cc2)C3=N1` the AC50 was 8520 nM.
Work on `COc1ccc(COc2ccccc2C(=O)NCc2ccccc2)cc1F` yielded an AC50 of 4760 nM.
`O=C(Nc1ccc(F)cc1)Nc1cc(OCC(F)(F)F)cc(OCC(F)(F)F)c1` showed an AC50 of 2460 nM.
With `COc1ccccc1-c1cc(C(F)(F)F)nc(S(=O)(=O)CCCC(=O)Nc2cc(C)on2)n1` the AC50 was 6570 nM.
Work on `CN(Cc1ccc(OC(F)F)cc1)C(=O)c1cccc(S(=O)(=O)N2CCN(c3ccccc3)CC2)c1` yielded an AC50 of 2590 nM.
Compound `O=c1c2ccccc2nc(/C=C/c2ccc([N+](=O)[O-])o2)n1-c1ccc(O)cc1` has an AC50 of 3240 nM.
With `CCc1c(C)nc2cc(-c3ccc(OC)c(OC)c3)nn2c1NCC1CC1` the AC50 was 5110 nM.
`COC(=O)Oc1ccc(/C=C/C(=O)OC(C)C)cc1OC(=O)OC` was tested, and the AC50 was 3290 nM.
For `CCCCCCCCCCOC(=O)Cn1c(COc2ccc(OC)cc2)[n+](C)c2ccccc21`, the AC50 was 2010 nM.
With `Oc1ccccc1C(Nc1nccs1)c1ccc2cccnc2c1O` (configuration not stated) the AC50 was 1130 nM.
`Cc1ccc(C(=O)NC2CCCc3c2cnn3-c2ccc(F)cc2F)cn1` (configuration not stated) was tested, and the AC50 was 921 nM.
`COc1ccc(N2CCN(C(=O)CN3CCN(c4nc(-c5ccc(F)cc5)cs4)CC3)CC2)cc1` showed an AC50 of 1810 nM.
With `CC(C)C[C@H]1CN=C(N(C)C)N1CC1CCCCCC1` the AC50 was 5030 nM.
With `Cc1cc(C)c(C)c(S(=O)(=O)N2CCN(c3ncnc4ccccc34)CC2)c1C` the AC50 was 1460 nM.
Work on `C#CCN(C[C@@H]1[C@@H](OC(=O)NCC2CCCCC2)[C@@H](OC(=O)NCC2CCCCC2)Cn2c(=O)ccc(=O)n21)S(=O)(=O)c1ccc(C)cc1` yielded an AC50 of 2490 nM.
Work on `Cc1ccc(S(=O)(=O)Nc2cccc3ncccc23)s1` yielded an AC50 of 3850 nM.
`CC(C)(C)c1cc(C(c2cccnc2)N2CCN(CCO)CC2)cc(C(C)(C)C)c1O` (configuration not stated) was tested, and the AC50 was 1700 nM.
With `COCC1CCCCN1C(=O)c1cc(COc2ccc3ncccc3c2)on1` (configuration not stated) the AC50 was 330 nM.
With `CC(C)C1C(=O)N(Cc2cn(CCC3OCCO3)nn2)CCS(=O)(=O)N1Cc1ccc(-c2ccc(Cl)c(Cl)c2)cc1` (configuration not stated) the AC50 was 1280 nM.
`CCOC(=O)Cn1c(=O)c(-c2cc(Br)ccc2N)nc2ccccc21` showed an AC50 of 758 nM.
Work on `CN(C)S(=O)(=O)c1ccc(Oc2ccc(S(=O)(=O)N(C)C)cc2)cc1` yielded an AC50 of 3040 nM.
In the case of `COc1cc(C)c(NC(=O)COc2cccc3c2OC(C)(C)C3)cc1OC`, the AC50 is reported as 7060 nM.
Work on `CC(C)C(=O)NC(c1ccc(Cl)cc1Cl)c1ccc2cccnc2c1O` (configuration not stated) yielded an AC50 of 691 nM.
Work on `NS(=O)(=O)c1ccc(CCNCc2cc(Br)ccc2OCc2ccccc2)cc1` yielded an AC50 of 2920 nM.
`Cn1nc(-c2ccccn2)nc2c(=O)n(C)c(=O)nc1-2` was tested, and the AC50 was 493 nM.
In the case of `CCCCCOc1ccc(Br)cc1CSC(=N)N`, the AC50 is reported as 1470 nM.
In the case of `CC(C)(C)n1nnnc1C(c1ccc(C(F)(F)F)cc1)N(Cc1ccccc1)Cc1ccco1` (configuration not stated), the AC50 is reported as 4740 nM.
`CCCC(=O)N1CCN(c2ccc(NC(=O)c3ccc([N+](=O)[O-])o3)cc2Cl)CC1` showed an AC50 of 700 nM.
`Cc1cc(C(=O)COC(=O)c2ccccc2Br)c(C)n1CC1CCCO1` (configuration not stated) was tested, and the AC50 was > 70000 nM (inactive).
Work on `O=C(Nc1ccc(Cl)cc1)Nc1ccc(N2CCCC2)c(S(=O)(=O)Nc2ccccc2Cl)c1` yielded an AC50 of 5200 nM.
In the case of `Cc1ccc(C)c(N2CCN(C(=O)CCS(=O)(=O)c3ccc4c(c3)NC(=O)C(C)S4)CC2)c1` (configuration not stated), the AC50 is reported as 4470 nM.
With `Oc1ccc(-c2n[nH]c(C(F)(F)F)c2-c2ccccc2)c(O)c1` the AC50 was 283 nM.
In the case of `COc1ccc(NC(=O)COc2ccc(N(C)S(=O)(=O)c3ccc(Cl)cc3)cc2)cc1OC`, the AC50 is reported as 1350 nM.
`O=C(CN1CCCC1c1cccs1)Nc1cc(S(=O)(=O)N2CCCCC2)ccc1Cl` (configuration not stated) was tested, and the AC50 was 14400 nM.
Compound `O=C(Cn1cnc2ccccc21)Nc1cccc(S(=O)(=O)N2CCCC2)c1` has an AC50 of 2770 nM.
Work on `CC(Sc1nc2ccccc2c(=O)n1C)C(=O)NC1CCCCC1C` (configuration not stated) yielded an AC50 of 3460 nM.
`N#CC(c1cccc(Cl)c1)c1ccc2c(C(F)(F)F)cc(C(F)(F)F)nc2n1` (configuration not stated) showed an AC50 of 689 nM.
`CCOC(=O)c1cccc(NC2c3ccccc3C(=O)N2Cc2ccco2)c1` (configuration not stated) showed an AC50 of 4260 nM.
